Converted amounts (≈) assume the structure as drawn.
Assays:
Assay type in all cases: functional
[1] = system: Mycobacterium tuberculosis; assay: AntiMycobacterium tuberculosis activity Non-Replicating form: Average MIC90 (uM)
[2] = system: Mycobacterium tuberculosis; assay: AntiMycobacterium tuberculosis activity 1-week GAST/Fe MIC (uM); settings: 168 h
[3] = system: Mycobacterium tuberculosis; assay: AntiMycobacterium tuberculosis activity 2-week GAST/Fe MIC (uM); settings: 336 h
[4] = system: Mycobacterium tuberculosis; assay: AntiMycobacterium tuberculosis activity 1-week 7H9/ADC/Tw MIC (uM); settings: 168 h
[5] = system: Mycobacterium tuberculosis; assay: AntiMycobacterium tuberculosis activity 2-week 7H9/ADC/Tw MIC (uM); settings: 336 h
[6] = system: Mycobacterium tuberculosis; assay: AntiMycobacterium tuberculosis activity 2-week Alamar Blue 7H9/ADC/Tw MIC (uM); settings: 336 h
[7] = system: Mycobacterium tuberculosis; assay: AntiMycobacterium tuberculosis activity 1-week 7H9/glucose/BSA/Tx MIC (uM); settings: 168 h
[8] = system: Mycobacterium tuberculosis; assay: AntiMycobacterium tuberculosis activity 2-week 7H9/glucose/BSA/Tx MIC (uM); settings: 336 h
[9] = system: Mycobacterium tuberculosis; assay: AntiMycobacterium tuberculosis activity 1-week 7H9/DPPC/cholesterol/BSA/Tx MIC (uM); settings: 168 h
[10] = system: Mycobacterium tuberculosis; assay: AntiMycobacterium tuberculosis activity 2-week 7H9/DPPC/cholesterol/BSA/Tx MIC (uM); settings: 336 h
[11] = system: Mycobacterium tuberculosis; assay: AntiMycobacterium tuberculosis activity 1-week 7H9/cholesterol/BSA/Tx MIC (uM); settings: 168 h
[12] = system: Mycobacterium tuberculosis; assay: AntiMycobacterium tuberculosis activity 2-week Alamar Blue 7H9/cholesterol/BSA/Tx MIC (uM); settings: 336 h
[13] = system: Mycobacterium tuberculosis; assay: (§1) AntiMycobacterium tuberculosis activity day 10 in 7H9/2.5mM butyrate/pH6/0.1mM nitrite MIC90 (uM); settings: 240 h
[14] = system: Mycobacterium tuberculosis; assay: AntiMycobacterium tuberculosis activity day 21 in 7H9/2.5mM butyrate/pH6/0.1mM nitrite MIC90 (uM); settings: 504 h
[15] = system: Mycobacterium tuberculosis; assay: as §1; settings: 240 h; remark: listed apart in the source
[16] = system: Mycobacterium tuberculosis; assay: AntiMycobacterium tuberculosis activity day 21 MIC99 in 7H9/2.5mM butyrate/pH6/0.1mM nitrite MIC99 (uM); settings: 504 h
[17] = system: Mycobacterium tuberculosis; assay: AntiMycobacterium tuberculosis activity Replicating form: Average MIC90 (uM)
[18] = system: HepG2; assay: HepG2 CC50 (uM) Cytotoxicity; settings: Homo sapiens

| Compound | MIC90 [1] [µM] | MIC [2] [µM] | MIC [3] [µM] | MIC [4] [µM] | MIC [5] [µM] | MIC [6] [µM] | MIC [7] [µM] | MIC [8] [µM] | MIC [9] [µM] | MIC [10] [µM] | MIC [11] [µM] | MIC [12] [µM] | MIC90 [13] [µM] | MIC90 [14] [µM] | MIC90 [15] [µM] | MIC [16] [µM] | MIC90 [17] [µM] | CC50 [18] [µM] |
| --- | --- | --- | --- | --- | --- | --- | --- | --- | --- | --- | --- | --- | --- | --- | --- | --- | --- | --- |
| CCCn1c(CNc2ccccc2O)nc2ccccc21 | 7.04 (≈ 1.98 µg/mL) | 1.56 (≈ 0.439 µg/mL) | 1.56 (≈ 0.439 µg/mL) | 9.4 (≈ 2.64 µg/mL) | 9.4 (≈ 2.64 µg/mL) | 6.25 (≈ 1.76 µg/mL) | 12.5 (≈ 3.52 µg/mL) | 12.5 (≈ 3.52 µg/mL) | 6.25 (≈ 1.76 µg/mL) | 6.25 (≈ 1.76 µg/mL) | 6.25 (≈ 1.76 µg/mL) | 6.25 (≈ 1.76 µg/mL) | 3.12 (≈ 0.878 µg/mL) | 6.25 (≈ 1.76 µg/mL) | > 50 | > 50 | 12.7 (≈ 3.57 µg/mL) | 84.1 |
| NC(=O)c1cc(Br)ccc1OCCOc1ccccc1 | > 100 | 6.25 (≈ 2.1 µg/mL) | 37 (≈ 12.4 µg/mL) | > 50 | > 50 | > 50 | > 50 | > 50 | > 50 | > 50 | 50 (≈ 16.8 µg/mL) | > 50 | 50 (≈ 16.8 µg/mL) | > 50 | > 50 | > 50 | > 100 | > 100 |
| Nc1c2c(nc3sc4c(c13)CCCC4)CCCC2 | 94.6 (≈ 24.4 µg/mL) | 1.56 (≈ 0.403 µg/mL) | 2.3 (≈ 0.594 µg/mL) | 25 (≈ 6.46 µg/mL) | 37 (≈ 9.56 µg/mL) | 12.5 (≈ 3.23 µg/mL) | 19 (≈ 4.91 µg/mL) | 25 (≈ 6.46 µg/mL) | 12.5 (≈ 3.23 µg/mL) | 25 (≈ 6.46 µg/mL) | 12.5 (≈ 3.23 µg/mL) | 25 (≈ 6.46 µg/mL) | 50 (≈ 12.9 µg/mL) | 50 (≈ 12.9 µg/mL) | > 50 | > 50 | 52 (≈ 13.4 µg/mL) | 34.9 |
| c1coc(CNc2nc(N3CCCCC3)nc3ccccc23)c1 | 27.8 (≈ 8.58 µg/mL) | 9.4 (≈ 2.9 µg/mL) | 9.4 (≈ 2.9 µg/mL) | 19 (≈ 5.86 µg/mL) | 25 (≈ 7.71 µg/mL) | 25 (≈ 7.71 µg/mL) | 6.25 (≈ 1.93 µg/mL) | 12.5 (≈ 3.85 µg/mL) | 6.25 (≈ 1.93 µg/mL) | 9.4 (≈ 2.9 µg/mL) | 4.7 (≈ 1.45 µg/mL) | 6.25 (≈ 1.93 µg/mL) | 12.5 (≈ 3.85 µg/mL) | 25 (≈ 7.71 µg/mL) | 12.5 (≈ 3.85 µg/mL) | 25 (≈ 7.71 µg/mL) | 8.41 (≈ 2.59 µg/mL) | 18.6 |
| Cc1cccc(-c2nc(Nc3ccncn3)c3sccc3n2)n1 | 0.09 (≈ 0.0288 µg/mL) | 6.25 (≈ 2 µg/mL) | 12.5 (≈ 4 µg/mL) | 4.7 (≈ 1.51 µg/mL) | 9.4 (≈ 3.01 µg/mL) | 9.4 (≈ 3.01 µg/mL) | ≥ 50 | > 50 | 37 (≈ 11.9 µg/mL) | > 50 | 37 (≈ 11.9 µg/mL) | 6.25 (≈ 2 µg/mL) | 3.12 (≈ 1 µg/mL) | 6.25 (≈ 2 µg/mL) | 6.25 (≈ 2 µg/mL) | 6.25 (≈ 2 µg/mL) | 2.5 (≈ 0.801 µg/mL) | 14.3 |
| CCc1c(C)nc(-n2nc(C)cc2NC(=O)c2ccccc2SC)[nH]c1=O | 1.25 (≈ 0.479 µg/mL) | 0.1 (≈ 0.0383 µg/mL) | 0.2 (≈ 0.0767 µg/mL) | > 50 | > 50 | 37 (≈ 14.2 µg/mL) | 9.4 (≈ 3.6 µg/mL) | > 50 | 3.13 (≈ 1.2 µg/mL) | > 50 | 6.25 (≈ 2.4 µg/mL) | > 50 | 3.12 (≈ 1.2 µg/mL) | > 50 | > 50 | > 50 | > 100 | 1.3 |
| NCC(c1cccs1)S(=O)(=O)c1ccccc1 (stereo not given) | 19.6 (≈ 5.24 µg/mL) | 1.56 (≈ 0.417 µg/mL) | 2.3 (≈ 0.615 µg/mL) | 19 (≈ 5.08 µg/mL) | 25 (≈ 6.68 µg/mL) | 25 (≈ 6.68 µg/mL) | 25 (≈ 6.68 µg/mL) | 25 (≈ 6.68 µg/mL) | 50 (≈ 13.4 µg/mL) | 50 (≈ 13.4 µg/mL) | 50 (≈ 13.4 µg/mL) | 50 (≈ 13.4 µg/mL) | 25 (≈ 6.68 µg/mL) | 25 (≈ 6.68 µg/mL) | > 50 | > 50 | 20.7 (≈ 5.52 µg/mL) | 35.4 |
| O=C(NCc1cc(Cl)cc(Cl)c1)c1c(C(F)(F)F)nc2ccccn12 | 2.93 (≈ 1.14 µg/mL) | 0.1 (≈ 0.0388 µg/mL) | 0.39 (≈ 0.151 µg/mL) | 12.5 (≈ 4.85 µg/mL) | 37 (≈ 14.4 µg/mL) | 12.5 (≈ 4.85 µg/mL) | > 50 | > 50 | 4.7 (≈ 1.82 µg/mL) | 12.5 (≈ 4.85 µg/mL) | 2.3 (≈ 0.893 µg/mL) | 1.2 (≈ 0.466 µg/mL) | 1.5 (≈ 0.582 µg/mL) | 12.5 (≈ 4.85 µg/mL) | > 50 | > 50 | > 100 | 38.3 |
| O=C(c1[nH]nc2c1CCCC2)N1CCN(Cc2ccc3c(c2)OCO3)CC1 | > 15.5 | 0.39 (≈ 0.144 µg/mL) | 0.78 (≈ 0.287 µg/mL) | > 50 | > 50 | 4.7 (≈ 1.73 µg/mL) | 37 (≈ 13.6 µg/mL) | > 50 | 4.7 (≈ 1.73 µg/mL) | 19 (≈ 7 µg/mL) | 0.78 (≈ 0.287 µg/mL) | 1.56 (≈ 0.575 µg/mL) | 1.5 (≈ 0.553 µg/mL) | 6.25 (≈ 2.3 µg/mL) | > 50 | > 50 | > 100 | > 100 |
| Brc1c(-c2ccc3c(c2)OCO3)nc2ncccn12 | 27.8 (≈ 8.84 µg/mL) | 0.2 (≈ 0.0636 µg/mL) | 0.3 (≈ 0.0954 µg/mL) | 25 (≈ 7.95 µg/mL) | 37 (≈ 11.8 µg/mL) | 4.7 (≈ 1.5 µg/mL) | 25 (≈ 7.95 µg/mL) | 37 (≈ 11.8 µg/mL) | 3.13 (≈ 0.996 µg/mL) | 25 (≈ 7.95 µg/mL) | 1.56 (≈ 0.496 µg/mL) | 2.3 (≈ 0.732 µg/mL) | 1.5 (≈ 0.477 µg/mL) | 12.5 (≈ 3.98 µg/mL) | > 50 | 50 (≈ 15.9 µg/mL) | 45.1 (≈ 14.4 µg/mL) | > 100 |
